Experimental data from the Biogen ADME set (Fang et al. 2023).
Converted amounts (≈) assume the structure as drawn.

Conditions: for aqueous solubility: pH 6.8

`CCc1nnc2n1CCN(C(=O)c1ccccc1Oc1cccnc1)C2` showed an MDR1-MDCK efflux ratio of 61.5, an intrinsic clearance, human liver microsomes of 4.83 mL/min/kg and an intrinsic clearance, rat liver microsomes of 74.7 mL/min/kg. It also gave an aqueous solubility of 43.4 µg/mL (≈ 124 µM).

For `Cc1n[nH]c(C)c1Cc1ccc(NCCC(C)C)cc1`, the MDR1-MDCK efflux ratio was 0.61, the intrinsic clearance, human liver microsomes was ≤ 4.74 mL/min/kg and the intrinsic clearance, rat liver microsomes was 484 mL/min/kg. It also gave an aqueous solubility of 14.7 µg/mL (≈ 54.2 µM).

For `c1ccc(CNc2nn3nnnc3c3ccccc23)cc1`, the MDR1-MDCK efflux ratio was 0.624 and the aqueous solubility was 0.1 µg/mL (≈ 0.362 µM).

With `O=C(NCCc1ccc(O)c(O)c1)Nc1ccccn1` the intrinsic clearance, human liver microsomes was ≤ 4.74 mL/min/kg, the intrinsic clearance, rat liver microsomes was 149 mL/min/kg and the aqueous solubility was 47.5 µg/mL (≈ 174 µM).

Compound `NCC(=O)Nc1ccc(-n2nc(C(F)(F)F)cc2-c2ccc3c(ccc4ccccc43)c2)cc1` has an MDR1-MDCK efflux ratio of 2.96 and an aqueous solubility of 0.25 µg/mL (≈ 0.543 µM).

With `OC1CCN(c2ncc(-c3cnccn3)c(-c3cccs3)n2)CC1` the MDR1-MDCK efflux ratio was 1.14, the intrinsic clearance, human liver microsomes was 7.01 mL/min/kg and the intrinsic clearance, rat liver microsomes was ≤ 10.7 mL/min/kg. For the same compound, the aqueous solubility was 47.9 µg/mL (≈ 141 µM).

With `Cc1nccc(-c2cccc(NCC(=O)N3CCCCCCC3)c2)n1` the MDR1-MDCK efflux ratio was 0.748, the intrinsic clearance, human liver microsomes was 302 mL/min/kg and the intrinsic clearance, rat liver microsomes was 2050 mL/min/kg. It also gave an aqueous solubility of 55.6 µg/mL (≈ 164 µM).

With `CCOc1ccc(OCCN2CCN(C(C)=O)CC2)cc1` the MDR1-MDCK efflux ratio was 0.671, the intrinsic clearance, human liver microsomes was ≤ 4.74 mL/min/kg and the intrinsic clearance, rat liver microsomes was 17.5 mL/min/kg.

In the case of `Cc1cccc(-n2cnnc2CCCN2CCOCC2)c1`, the MDR1-MDCK efflux ratio is reported as 30.5, the intrinsic clearance, human liver microsomes is reported as ≤ 4.74 mL/min/kg and the intrinsic clearance, rat liver microsomes is reported as 98.3 mL/min/kg. For the same compound, the aqueous solubility was 35 µg/mL (≈ 122 µM).

With `CCC(Nc1cnn(C)c1)c1ccc2c(c1)OCCO2` (stereo not given) the MDR1-MDCK efflux ratio was 0.835, the intrinsic clearance, human liver microsomes was 11.4 mL/min/kg and the intrinsic clearance, rat liver microsomes was 332 mL/min/kg. It also gave an aqueous solubility of 37.7 µg/mL (≈ 138 µM).

`C=CC(=O)N(C)CCOc1c(N)ncnc1-c1cc(F)cc(NC(=O)c2ccc(C3CC3)cc2F)c1C` showed an MDR1-MDCK efflux ratio of 86.8, a fraction unbound, human plasma of 0.0689 and an intrinsic clearance, human liver microsomes of 79 mL/min/kg. It also gave an intrinsic clearance, rat liver microsomes of 2040 mL/min/kg and an aqueous solubility of 58.9 µg/mL (≈ 116 µM).

With `CN(CCOCCOc1ccccc1-c1ccccc1)Cc1ccccc1.O=C(O)C(=O)O` the MDR1-MDCK efflux ratio was 1.82, the intrinsic clearance, human liver microsomes was 216 mL/min/kg and the intrinsic clearance, rat liver microsomes was 1520 mL/min/kg. The aqueous solubility was 29 µg/mL.

With `Cc1cc(C(=O)Nc2ccc(C)c(C)c2)n(-c2ccccc2)n1` the MDR1-MDCK efflux ratio was 0.392, the intrinsic clearance, human liver microsomes was 97 mL/min/kg and the intrinsic clearance, rat liver microsomes was 2050 mL/min/kg. It also gave an aqueous solubility of 3.93 µg/mL (≈ 12.9 µM).

`CC#CC(=O)N[C@H]1CCCN(c2c(F)cc(C(N)=O)c3[nH]c(C)c(C)c23)C1` gave an MDR1-MDCK efflux ratio of 7.25, a fraction unbound, human plasma of 0.0146 and a fraction unbound, rat plasma of 0.00229. The intrinsic clearance, human liver microsomes was 25 mL/min/kg, the intrinsic clearance, rat liver microsomes was 238 mL/min/kg and the aqueous solubility was 10.8 µg/mL (≈ 29.2 µM).

`Fc1cccc(N2CCCC2)c1CN1CCN(Cc2ccon2)CC1` gave an MDR1-MDCK efflux ratio of 0.64, an intrinsic clearance, human liver microsomes of 60.6 mL/min/kg and an intrinsic clearance, rat liver microsomes of 3460 mL/min/kg.

With `Cc1ccc(CCNC(=O)N2CC(C)(C)OC(C)(C)C2)cn1` the MDR1-MDCK efflux ratio was 22.9, the intrinsic clearance, human liver microsomes was 6.58 mL/min/kg and the intrinsic clearance, rat liver microsomes was 76.4 mL/min/kg. The aqueous solubility was 41.1 µg/mL (≈ 135 µM).

Work on `COc1ccc(C2(NCc3ccc(N4CCCC4=O)cc3)CC2)cc1` yielded an MDR1-MDCK efflux ratio of 0.512, an intrinsic clearance, human liver microsomes of 13.4 mL/min/kg and an intrinsic clearance, rat liver microsomes of 266 mL/min/kg. For the same compound, the aqueous solubility was 81.5 µg/mL (≈ 242 µM).

In the case of `CCN(CC)CC(=O)Nc1ccc(Oc2ccc(C)nn2)cc1`, the MDR1-MDCK efflux ratio is reported as 1.62, the intrinsic clearance, human liver microsomes is reported as ≤ 4.74 mL/min/kg and the intrinsic clearance, rat liver microsomes is reported as 31.6 mL/min/kg.

With `Cc1nc(Cl)cc(Nc2ccc3c(c2)N(C)C(=O)CO3)n1` the MDR1-MDCK efflux ratio was 0.746, the intrinsic clearance, human liver microsomes was 34.6 mL/min/kg and the intrinsic clearance, rat liver microsomes was 63.2 mL/min/kg. For the same compound, the aqueous solubility was 30 µg/mL (≈ 98.5 µM).

`O=C1CN(C(=O)c2ccc(Cl)cn2)CCN1CCc1ccccc1` gave an MDR1-MDCK efflux ratio of 1.1, an intrinsic clearance, human liver microsomes of 7.25 mL/min/kg and an intrinsic clearance, rat liver microsomes of 499 mL/min/kg.

For `CC(C)[C@@](C)(O)[C@@H]1CN(c2nc(-c3n[nH]c4ncccc34)c(F)cc2Cl)CCN1`, the fraction unbound, human plasma was 0.201 and the fraction unbound, rat plasma was 0.0419.

In the case of `CN1CCc2ccc(C(=O)NCCC(=O)Nc3cccnc3)cc21`, the MDR1-MDCK efflux ratio is reported as 43.4, the intrinsic clearance, human liver microsomes is reported as 6.19 mL/min/kg and the intrinsic clearance, rat liver microsomes is reported as 86.6 mL/min/kg.

In the case of `CCOc1cc(N2CCc3nc[nH]c3C2)ncn1`, the intrinsic clearance, human liver microsomes is reported as ≤ 4.74 mL/min/kg and the intrinsic clearance, rat liver microsomes is reported as 77.8 mL/min/kg.

With `CN(Cc1ccc(C(=O)O)cc1)C(=O)c1ccnn1C` the MDR1-MDCK efflux ratio was 0.663, the intrinsic clearance, human liver microsomes was ≤ 4.74 mL/min/kg and the intrinsic clearance, rat liver microsomes was ≤ 10.7 mL/min/kg.

`CCOc1ccc(Nc2ncccc2C#N)cc1` showed an intrinsic clearance, human liver microsomes of 99.6 mL/min/kg, an intrinsic clearance, rat liver microsomes of 319 mL/min/kg and an aqueous solubility of 9.23 µg/mL (≈ 38.6 µM).

For `CN(C)c1ncncc1NC(=O)c1ccc(C(F)(F)F)nc1`, the intrinsic clearance, human liver microsomes was ≤ 4.74 mL/min/kg and the intrinsic clearance, rat liver microsomes was ≤ 10.7 mL/min/kg.

For `N=c1ccn2c(n1)O[C@@H]1[C@@H](O)[C@@H](CO)O[C@H]12`, the intrinsic clearance, human liver microsomes was ≤ 4.74 mL/min/kg and the intrinsic clearance, rat liver microsomes was ≤ 10.7 mL/min/kg.

`O=C(Nc1ncccc1OC(F)F)C1CCCCC1` showed an intrinsic clearance, human liver microsomes of 61.6 mL/min/kg and an intrinsic clearance, rat liver microsomes of 1090 mL/min/kg.

`Cc1ccc(C)c(OCCC(=O)N2CCC(n3c(=O)[nH]c4ccccc43)CC2)c1` gave an intrinsic clearance, human liver microsomes of 421 mL/min/kg and an intrinsic clearance, rat liver microsomes of 6460 mL/min/kg.

With `Cc1nc(CC2CCN(S(=O)(=O)c3c(C)noc3C)CC2)cc(NC2CCCC2)n1` the MDR1-MDCK efflux ratio was 11.4, the intrinsic clearance, human liver microsomes was 249 mL/min/kg and the intrinsic clearance, rat liver microsomes was 2420 mL/min/kg. It also gave an aqueous solubility of 60.5 µg/mL (≈ 139 µM).

With `COc1cc2nc(-c3cc(F)ccc3O)nc(N[C@@H]3CNC[C@H]3C(C)(C)O)c2cc1OC.Cl` the fraction unbound, human plasma was 0.00076 and the fraction unbound, rat plasma was 0.0015.

For `CCc1nc(C)cn2nc(-c3cc(=O)n4cc(C5CCN(C)CC5)cc(C)c4n3)cc12`, the MDR1-MDCK efflux ratio was 3.62, the fraction unbound, human plasma was 0.0738 and the fraction unbound, rat plasma was 0.0392. The intrinsic clearance, human liver microsomes was ≤ 4.74 mL/min/kg, the intrinsic clearance, rat liver microsomes was 25.7 mL/min/kg and the aqueous solubility was 17.7 µg/mL (≈ 42.4 µM).

With `CC1(C)CN(C(=O)C2(C(=O)N3CC(C)(C)C3(C)C)CCC2)C1(C)C` the MDR1-MDCK efflux ratio was 2.4, the intrinsic clearance, human liver microsomes was 304 mL/min/kg and the intrinsic clearance, rat liver microsomes was 1210 mL/min/kg. For the same compound, the aqueous solubility was 75 µg/mL (≈ 224 µM).

`COc1ccc(Cl)cc1NC(=O)CN1CCCN(c2ccc(C(F)(F)F)cn2)CC1` showed an MDR1-MDCK efflux ratio of 1.75, an intrinsic clearance, human liver microsomes of 453 mL/min/kg and an intrinsic clearance, rat liver microsomes of 1060 mL/min/kg.

For `CCc1nc(C)cc(N2CCCC3(CCNCC3)CC2)n1`, the MDR1-MDCK efflux ratio was 32.4, the intrinsic clearance, human liver microsomes was ≤ 4.74 mL/min/kg and the intrinsic clearance, rat liver microsomes was ≤ 10.7 mL/min/kg.

In the case of `Fc1ccc(-c2nnc(CN3CCC(c4c[nH]c5ccccc45)CC3)o2)cc1`, the intrinsic clearance, human liver microsomes is reported as 29.3 mL/min/kg, the intrinsic clearance, rat liver microsomes is reported as 230 mL/min/kg and the aqueous solubility is reported as 8 µg/mL (≈ 21.3 µM).

For `COCc1ccccc1COC(=O)c1ccc(C)nc1`, the MDR1-MDCK efflux ratio was 0.608, the intrinsic clearance, human liver microsomes was 444 mL/min/kg and the intrinsic clearance, rat liver microsomes was 2220 mL/min/kg.

`CCN(C/C=C/c1ccc(F)cc1)Cc1nc(COC)no1` showed an MDR1-MDCK efflux ratio of 0.527, an intrinsic clearance, human liver microsomes of 25.9 mL/min/kg and an intrinsic clearance, rat liver microsomes of 862 mL/min/kg. For the same compound, the aqueous solubility was 32 µg/mL (≈ 105 µM).

Compound `O[C@@H]1C[C@@H](c2nc(-c3ccccc3)no2)N(Cc2ccccc2)C1` has an MDR1-MDCK efflux ratio of 0.539, an intrinsic clearance, human liver microsomes of 54.2 mL/min/kg and an intrinsic clearance, rat liver microsomes of 908 mL/min/kg. It also gave an aqueous solubility of 41.6 µg/mL (≈ 129 µM).

With `CC(C)(C)C(=O)N1CCC(NS(C)(=O)=O)CC1` the MDR1-MDCK efflux ratio was 1.89, the intrinsic clearance, human liver microsomes was ≤ 4.74 mL/min/kg and the intrinsic clearance, rat liver microsomes was ≤ 10.7 mL/min/kg. For the same compound, the aqueous solubility was 56.9 µg/mL (≈ 217 µM).
